Measurements as given in the kinase profiling compilation of Christmann-Franck et al. (2016).

Assays:
Experiment in all cases: radiometric filter-binding kinase assay, Kinase HotSpot
Conditions in all cases: compound 0.5 µM; ATP 10 µM
ABL1 (human) = ABL1 (human) (UniProt P00519)
ACVRL1 (human) = ACVRL1 (human) (UniProt P37023)
AKT1 (human) = AKT1 (human) (UniProt P31749)
AURKC (human) = AURKC (human) (UniProt Q9UQB9)
CDC42BPA (human) = CDC42BPA (human) (UniProt Q5VT25)
CDK6 CCND3 (human) = CDK6 CCND3 (human) (UniProt P30281+Q00534)
CDK9 CCNK (human) = CDK9 CCNK (human) (UniProt O75909+P50750)
CHUK (human) = CHUK (human) (UniProt O15111)
CSK (human) = CSK (human) (UniProt P41240)
CSNK1G2 (human) = CSNK1G2 (human) (UniProt P78368)
CSNK2A1 (human) = CSNK2A1 (human) (UniProt P68400)
DCLK2 (human) = DCLK2 (human) (UniProt Q8N568)
DYRK1B (human) = DYRK1B (human) (UniProt Q9Y463)
DYRK2 (human) = DYRK2 (human) (UniProt Q92630)
EPHA1 (human) = EPHA1 (human) (UniProt P21709)
FGR (human) = FGR (human) (UniProt P09769)
GRK6 (human) = GRK6 (human) (UniProt P43250)
HIPK1 (human) = HIPK1 (human) (UniProt Q86Z02)
IRAK1 (human) = IRAK1 (human) (UniProt P51617)
[1] = target: JAK1 JH1 catalytic (human) (UniProt P23458)
JAK2 JH1 JH2 (human) = JAK2 JH1 JH2 (human) (UniProt O60674)
LTK (human) = LTK (human) (UniProt P29376)
MAP4K2 (human) = MAP4K2 (human) (UniProt Q12851)
MARK1 (human) = MARK1 (human) (UniProt Q9P0L2)
MST4 (human) = MST4 (human) (UniProt Q9P289)
PDGFRA (human) = PDGFRA (human) (UniProt P16234)
PDPK1 (human) = PDPK1 (human) (UniProt O15530)
PKN1 (human) = PKN1 (human) (UniProt Q16512)
PNCK (human) = PNCK (human) (UniProt Q6P2M8)
PRKCI (human) = PRKCI (human) (UniProt P41743)
PRKCZ (human) = PRKCZ (human) (UniProt Q05513)
PRKX (human) = PRKX (human) (UniProt P51817)
PTK2B (human) = PTK2B (human) (UniProt Q14289)
RET (human) = RET (human) (UniProt P07949)
SLK (human) = SLK (human) (UniProt Q9H2G2)
SRMS (human) = SRMS (human) (UniProt Q9H3Y6)
SRPK3 (human) = SRPK3 (human) (UniProt Q9UPE1)
STK3 (human) = STK3 (human) (UniProt Q13188)
STK38 (human) = STK38 (human) (UniProt Q15208)
SYK (human) = SYK (human) (UniProt P43405)
WNK2 (human) = WNK2 (human) (UniProt Q9Y3S1)
EGFR (human) = EGFR (human) (UniProt P00533)

Sequence of DYRK1B (human) (Q9Y463 whole entry, looked up): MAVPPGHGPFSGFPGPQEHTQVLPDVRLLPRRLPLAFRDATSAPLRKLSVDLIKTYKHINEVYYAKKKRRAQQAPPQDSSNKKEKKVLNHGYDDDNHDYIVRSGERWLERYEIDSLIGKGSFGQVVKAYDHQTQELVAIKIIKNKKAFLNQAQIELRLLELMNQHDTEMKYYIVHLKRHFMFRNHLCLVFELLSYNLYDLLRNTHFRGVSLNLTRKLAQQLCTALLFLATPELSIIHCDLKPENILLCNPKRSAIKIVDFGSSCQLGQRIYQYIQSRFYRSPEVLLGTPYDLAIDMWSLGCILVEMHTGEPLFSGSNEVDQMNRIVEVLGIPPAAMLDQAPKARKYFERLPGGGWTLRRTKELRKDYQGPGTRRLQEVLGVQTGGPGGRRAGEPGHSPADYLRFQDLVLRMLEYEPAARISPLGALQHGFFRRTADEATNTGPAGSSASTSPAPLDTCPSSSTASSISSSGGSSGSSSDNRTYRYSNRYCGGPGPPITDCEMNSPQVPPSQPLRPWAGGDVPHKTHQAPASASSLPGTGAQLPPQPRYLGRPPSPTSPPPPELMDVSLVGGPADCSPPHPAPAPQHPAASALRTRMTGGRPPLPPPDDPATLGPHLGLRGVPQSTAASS
Sequence of MAP4K2 (human) (Q12851 whole entry, looked up): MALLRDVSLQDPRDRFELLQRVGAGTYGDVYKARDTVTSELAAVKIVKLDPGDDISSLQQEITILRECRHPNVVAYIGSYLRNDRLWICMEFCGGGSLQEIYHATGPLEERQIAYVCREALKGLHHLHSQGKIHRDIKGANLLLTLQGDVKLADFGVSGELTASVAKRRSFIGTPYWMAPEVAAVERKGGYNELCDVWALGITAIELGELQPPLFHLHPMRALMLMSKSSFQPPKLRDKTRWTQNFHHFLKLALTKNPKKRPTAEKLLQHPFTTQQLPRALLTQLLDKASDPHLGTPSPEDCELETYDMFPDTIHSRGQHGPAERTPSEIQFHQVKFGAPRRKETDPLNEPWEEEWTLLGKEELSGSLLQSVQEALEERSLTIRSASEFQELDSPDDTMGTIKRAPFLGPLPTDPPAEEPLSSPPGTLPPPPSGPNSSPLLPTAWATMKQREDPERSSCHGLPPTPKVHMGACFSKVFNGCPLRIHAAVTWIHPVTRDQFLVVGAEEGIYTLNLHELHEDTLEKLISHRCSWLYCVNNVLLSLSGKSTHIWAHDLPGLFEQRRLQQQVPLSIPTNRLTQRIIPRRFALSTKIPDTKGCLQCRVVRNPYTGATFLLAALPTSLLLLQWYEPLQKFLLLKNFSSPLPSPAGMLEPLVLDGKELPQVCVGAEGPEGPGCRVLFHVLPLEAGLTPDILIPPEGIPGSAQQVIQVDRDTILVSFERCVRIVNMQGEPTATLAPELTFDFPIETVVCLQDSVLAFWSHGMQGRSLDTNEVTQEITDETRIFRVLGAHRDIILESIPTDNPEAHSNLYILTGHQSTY
Sequence of DYRK2 (human) (Q92630 whole entry, looked up): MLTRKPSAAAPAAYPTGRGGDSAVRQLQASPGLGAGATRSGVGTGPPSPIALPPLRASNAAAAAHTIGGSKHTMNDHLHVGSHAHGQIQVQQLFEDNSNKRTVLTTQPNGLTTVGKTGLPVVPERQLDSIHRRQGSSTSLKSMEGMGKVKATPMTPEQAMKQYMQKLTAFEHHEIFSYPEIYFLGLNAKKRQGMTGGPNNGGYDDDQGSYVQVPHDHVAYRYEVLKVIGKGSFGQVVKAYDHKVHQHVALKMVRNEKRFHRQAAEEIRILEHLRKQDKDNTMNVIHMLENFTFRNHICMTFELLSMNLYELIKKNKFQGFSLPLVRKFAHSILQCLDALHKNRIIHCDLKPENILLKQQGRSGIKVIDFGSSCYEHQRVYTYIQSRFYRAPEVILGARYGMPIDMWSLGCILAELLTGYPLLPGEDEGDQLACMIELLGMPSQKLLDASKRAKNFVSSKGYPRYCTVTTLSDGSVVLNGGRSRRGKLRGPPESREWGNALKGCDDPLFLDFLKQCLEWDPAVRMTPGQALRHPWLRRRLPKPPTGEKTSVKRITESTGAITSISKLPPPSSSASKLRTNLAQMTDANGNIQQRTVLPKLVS
Sequence of STK3 (human) (Q13188 whole entry, looked up): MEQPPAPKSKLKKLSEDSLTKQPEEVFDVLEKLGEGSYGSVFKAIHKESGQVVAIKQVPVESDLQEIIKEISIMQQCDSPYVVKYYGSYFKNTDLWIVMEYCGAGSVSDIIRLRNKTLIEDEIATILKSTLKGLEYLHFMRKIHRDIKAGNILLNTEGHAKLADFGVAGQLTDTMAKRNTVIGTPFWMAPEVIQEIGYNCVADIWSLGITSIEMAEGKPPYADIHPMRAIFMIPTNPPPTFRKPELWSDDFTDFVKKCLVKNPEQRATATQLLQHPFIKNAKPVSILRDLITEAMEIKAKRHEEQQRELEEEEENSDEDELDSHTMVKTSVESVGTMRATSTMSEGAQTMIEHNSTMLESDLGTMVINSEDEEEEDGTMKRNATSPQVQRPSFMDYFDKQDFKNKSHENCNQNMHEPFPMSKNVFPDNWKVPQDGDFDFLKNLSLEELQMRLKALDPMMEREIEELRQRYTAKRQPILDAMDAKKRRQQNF
Sequence of CDK9 CCNK (human) (O75909 whole entry, looked up): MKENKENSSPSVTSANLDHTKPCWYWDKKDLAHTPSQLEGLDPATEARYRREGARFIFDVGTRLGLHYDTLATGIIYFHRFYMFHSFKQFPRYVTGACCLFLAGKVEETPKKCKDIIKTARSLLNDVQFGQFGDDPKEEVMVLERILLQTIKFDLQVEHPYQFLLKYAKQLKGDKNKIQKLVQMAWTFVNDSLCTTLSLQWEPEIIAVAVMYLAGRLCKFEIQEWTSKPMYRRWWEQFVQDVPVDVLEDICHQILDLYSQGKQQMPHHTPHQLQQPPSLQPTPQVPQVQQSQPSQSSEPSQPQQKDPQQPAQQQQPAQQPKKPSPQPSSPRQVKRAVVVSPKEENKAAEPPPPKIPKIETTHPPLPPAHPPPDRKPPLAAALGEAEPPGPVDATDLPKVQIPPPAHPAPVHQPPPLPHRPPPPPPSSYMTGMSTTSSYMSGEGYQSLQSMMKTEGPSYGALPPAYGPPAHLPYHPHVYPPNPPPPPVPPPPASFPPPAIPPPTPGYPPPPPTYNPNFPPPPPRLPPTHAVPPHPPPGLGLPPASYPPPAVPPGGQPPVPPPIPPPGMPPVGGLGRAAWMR
Sequence of CDK9 CCNK (human) (P50750 whole entry, looked up): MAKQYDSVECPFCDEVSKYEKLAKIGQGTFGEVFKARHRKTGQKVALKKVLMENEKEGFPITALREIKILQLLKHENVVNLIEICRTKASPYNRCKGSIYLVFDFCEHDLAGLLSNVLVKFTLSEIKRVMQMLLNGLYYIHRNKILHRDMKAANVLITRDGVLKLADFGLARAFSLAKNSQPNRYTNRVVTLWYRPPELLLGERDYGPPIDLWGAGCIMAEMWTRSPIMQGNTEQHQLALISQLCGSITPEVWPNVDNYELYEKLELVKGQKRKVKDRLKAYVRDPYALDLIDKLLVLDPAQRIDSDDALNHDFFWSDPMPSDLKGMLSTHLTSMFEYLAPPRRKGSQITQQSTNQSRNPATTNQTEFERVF
Sequence of PRKX (human) (P51817 whole entry, looked up): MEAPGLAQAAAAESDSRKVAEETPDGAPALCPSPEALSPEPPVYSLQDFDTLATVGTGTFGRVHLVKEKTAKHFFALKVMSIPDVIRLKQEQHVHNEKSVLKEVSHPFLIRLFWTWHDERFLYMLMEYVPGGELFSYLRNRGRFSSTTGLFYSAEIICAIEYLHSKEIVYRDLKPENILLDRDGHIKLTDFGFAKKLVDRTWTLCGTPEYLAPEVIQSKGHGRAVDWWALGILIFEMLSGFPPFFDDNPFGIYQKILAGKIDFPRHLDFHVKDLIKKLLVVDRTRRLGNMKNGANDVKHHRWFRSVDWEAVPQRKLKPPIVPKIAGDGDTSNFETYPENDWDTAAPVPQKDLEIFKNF
Sequence of PDPK1 (human) (O15530 whole entry, looked up): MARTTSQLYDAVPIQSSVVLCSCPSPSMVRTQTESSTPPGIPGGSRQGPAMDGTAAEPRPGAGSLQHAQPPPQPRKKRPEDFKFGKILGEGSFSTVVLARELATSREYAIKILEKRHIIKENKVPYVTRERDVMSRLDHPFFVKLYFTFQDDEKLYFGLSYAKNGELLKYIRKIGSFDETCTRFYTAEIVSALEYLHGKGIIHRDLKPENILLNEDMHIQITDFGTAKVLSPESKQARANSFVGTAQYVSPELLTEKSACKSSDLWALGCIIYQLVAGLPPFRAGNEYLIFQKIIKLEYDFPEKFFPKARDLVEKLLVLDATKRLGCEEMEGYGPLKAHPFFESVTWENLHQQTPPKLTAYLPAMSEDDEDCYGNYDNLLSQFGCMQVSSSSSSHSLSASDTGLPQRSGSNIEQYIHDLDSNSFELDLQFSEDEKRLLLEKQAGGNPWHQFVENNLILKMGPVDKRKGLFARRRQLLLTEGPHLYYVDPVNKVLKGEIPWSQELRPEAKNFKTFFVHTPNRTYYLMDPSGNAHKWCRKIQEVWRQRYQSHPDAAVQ
Sequence of MST4 (human) (Q9P289 whole entry, looked up): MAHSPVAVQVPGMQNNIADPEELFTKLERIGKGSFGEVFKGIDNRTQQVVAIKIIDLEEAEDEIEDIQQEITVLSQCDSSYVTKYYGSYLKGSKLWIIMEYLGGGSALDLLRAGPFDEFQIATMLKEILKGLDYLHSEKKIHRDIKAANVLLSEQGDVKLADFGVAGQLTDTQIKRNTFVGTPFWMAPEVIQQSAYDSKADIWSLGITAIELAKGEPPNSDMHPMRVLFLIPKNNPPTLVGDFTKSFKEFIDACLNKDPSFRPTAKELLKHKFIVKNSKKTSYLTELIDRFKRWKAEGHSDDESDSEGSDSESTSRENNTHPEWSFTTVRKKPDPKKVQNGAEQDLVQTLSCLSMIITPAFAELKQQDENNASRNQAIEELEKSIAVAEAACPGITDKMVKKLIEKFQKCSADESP

## Nc1ncnc2c1c(-c1ccc(Oc3ccccc3)cc1)cn2C1CCCC1
ABL1 (human)
  residual activity: 67.4%
ACVRL1 (human)
  residual activity: 95.9%
AKT1 (human)
  residual activity: 103%
AURKC (human)
  residual activity: 95%
CDC42BPA (human)
  residual activity: 105%
CDK6 CCND3 (human)
  residual activity: 97.2%
CDK9 CCNK (human)
  residual activity: 104%
CHUK (human)
  residual activity: 99.7%
CSK (human)
  residual activity: 3.4%
CSNK1G2 (human)
  residual activity: 93.7%
CSNK2A1 (human)
  residual activity: 102%
DCLK2 (human)
  residual activity: 99.5%
DYRK1B (human)
  residual activity: 92.2%
DYRK2 (human)
  residual activity: 96.5%
EPHA1 (human)
  residual activity: 101%
FGR (human)
  residual activity: 2.93%
GRK6 (human)
  residual activity: 92.6%
HIPK1 (human)
  residual activity: 114%
IRAK1 (human)
  residual activity: 110%
[1]
  residual activity: 111%
JAK2 JH1 JH2 (human)
  residual activity: 104%
LTK (human)
  residual activity: 86.3%
MAP4K2 (human)
  residual activity: 89.4%
MARK1 (human)
  residual activity: 94.1%
MST4 (human)
  residual activity: 95.2%
PDGFRA (human)
  residual activity: 65%
PDPK1 (human)
  residual activity: 102%
PKN1 (human)
  residual activity: 104%
PNCK (human)
  residual activity: 96.2%
PRKCI (human)
  residual activity: 103%
PRKCZ (human)
  residual activity: 107%
PRKX (human)
  residual activity: 102%
PTK2B (human)
  residual activity: 96.7%
RET (human)
  residual activity: 9.97%
SLK (human)
  residual activity: 96.5%
SRMS (human)
  residual activity: 14.2%
SRPK3 (human)
  residual activity: 95.7%
STK3 (human)
  residual activity: 97.7%
STK38 (human)
  residual activity: 99.3%
SYK (human)
  residual activity: 104%
WNK2 (human)
  residual activity: 102%

## N#CC(C#N)=C(N)/C(C#N)=C/c1ccc(O)cc1
ABL1 (human)
  residual activity: 103%
ACVRL1 (human)
  residual activity: 88.8%
AKT1 (human)
  residual activity: 99.2%
AURKC (human)
  residual activity: 101%
CDC42BPA (human)
  residual activity: 96.2%
CDK6 CCND3 (human)
  residual activity: 100%
CDK9 CCNK (human)
  residual activity: 100%
CHUK (human)
  residual activity: 94%
CSK (human)
  residual activity: 97.6%
CSNK1G2 (human)
  residual activity: 104%
CSNK2A1 (human)
  residual activity: 104%
DCLK2 (human)
  residual activity: 101%
DYRK1B (human)
  residual activity: 101%
DYRK2 (human)
  residual activity: 117%
EPHA1 (human)
  residual activity: 103%
FGR (human)
  residual activity: 98.7%
GRK6 (human)
  residual activity: 107%
HIPK1 (human)
  residual activity: 103%
IRAK1 (human)
  residual activity: 123%
[1]
  residual activity: 99.4%
JAK2 JH1 JH2 (human)
  residual activity: 102%
LTK (human)
  residual activity: 92.5%
MAP4K2 (human)
  residual activity: 100%
MARK1 (human)
  residual activity: 111%
MST4 (human)
  residual activity: 101%
PDGFRA (human)
  residual activity: 97.8%
PDPK1 (human)
  residual activity: 99.4%
PKN1 (human)
  residual activity: 89%
PNCK (human)
  residual activity: 97.3%
PRKCI (human)
  residual activity: 97.4%
PRKCZ (human)
  residual activity: 105%
PRKX (human)
  residual activity: 93.7%
PTK2B (human)
  residual activity: 97.4%
RET (human)
  residual activity: 110%
SLK (human)
  residual activity: 102%
SRMS (human)
  residual activity: 107%
SRPK3 (human)
  residual activity: 96.4%
STK3 (human)
  residual activity: 95.2%
STK38 (human)
  residual activity: 96.9%
SYK (human)
  residual activity: 101%

## Cc1ccc(Nc2nccc(N(C)c3ccc4c(C)n(C)nc4c3)n2)cc1S(N)(=O)=O
ACVRL1 (human)
  residual activity: 102%
AKT1 (human)
  residual activity: 91.2%
AURKC (human)
  residual activity: 70.9%
CDC42BPA (human)
  residual activity: 85.4%
CDK6 CCND3 (human)
  residual activity: 96.1%
CDK9 CCNK (human)
  residual activity: 92.7%
CHUK (human)
  residual activity: 99.4%
CSK (human)
  residual activity: 93%
CSNK1G2 (human)
  residual activity: 96.9%
CSNK2A1 (human)
  residual activity: 114%
DCLK2 (human)
  residual activity: 102%
DYRK1B (human)
  residual activity: 93.3%
DYRK2 (human)
  residual activity: 98.8%
EGFR (human)
  residual activity: 91%
EPHA1 (human)
  residual activity: 85%
FGR (human)
  residual activity: 35.8%
GRK6 (human)
  residual activity: 102%
HIPK1 (human)
  residual activity: 97.6%
IRAK1 (human)
  residual activity: 97%
[1]
  residual activity: 104%
JAK2 JH1 JH2 (human)
  residual activity: 101%
LTK (human)
  residual activity: 80.2%
MAP4K2 (human)
  residual activity: 72.5%
MARK1 (human)
  residual activity: 99.9%
MST4 (human)
  residual activity: 108%
PDGFRA (human)
  residual activity: 13.9%
PDPK1 (human)
  residual activity: 93%
PKN1 (human)
  residual activity: 102%
PNCK (human)
  residual activity: 95.9%
PRKCI (human)
  residual activity: 96.1%
PRKCZ (human)
  residual activity: 97.7%
PRKX (human)
  residual activity: 101%
PTK2B (human)
  residual activity: 92%
RET (human)
  residual activity: 25.7%
SLK (human)
  residual activity: 84.9%
SRMS (human)
  residual activity: 115%
SRPK3 (human)
  residual activity: 102%
STK3 (human)
  residual activity: 95.4%
STK38 (human)
  residual activity: 100%
SYK (human)
  residual activity: 101%
WNK2 (human)
  residual activity: 98.2%

## CC(C)N(CCC(=O)c1ccc2ccccc2c1)Cc1ccccc1
ABL1 (human)
  residual activity: 101%
ACVRL1 (human)
  residual activity: 107%
AKT1 (human)
  residual activity: 100%
AURKC (human)
  residual activity: 97.5%
CDC42BPA (human)
  residual activity: 99.4%
CDK6 CCND3 (human)
  residual activity: 102%
CDK9 CCNK (human)
  residual activity: 99.5%
CHUK (human)
  residual activity: 96.4%
CSK (human)
  residual activity: 88.5%
CSNK1G2 (human)
  residual activity: 104%
CSNK2A1 (human)
  residual activity: 98.1%
DCLK2 (human)
  residual activity: 98.3%
DYRK1B (human)
  residual activity: 101%
DYRK2 (human)
  residual activity: 118%
EGFR (human)
  residual activity: 99.4%
EPHA1 (human)
  residual activity: 92.4%
FGR (human)
  residual activity: 94.2%
GRK6 (human)
  residual activity: 87.1%
HIPK1 (human)
  residual activity: 106%
IRAK1 (human)
  residual activity: 102%
[1]
  residual activity: 112%
JAK2 JH1 JH2 (human)
  residual activity: 97.5%
LTK (human)
  residual activity: 103%
MAP4K2 (human)
  residual activity: 98.3%
MARK1 (human)
  residual activity: 97.7%
MST4 (human)
  residual activity: 108%
PDGFRA (human)
  residual activity: 96.5%
PKN1 (human)
  residual activity: 107%
PNCK (human)
  residual activity: 102%
PRKCI (human)
  residual activity: 97.1%
PRKCZ (human)
  residual activity: 100%
PRKX (human)
  residual activity: 99.6%
PTK2B (human)
  residual activity: 106%
RET (human)
  residual activity: 101%
SLK (human)
  residual activity: 101%
SRMS (human)
  residual activity: 103%
SRPK3 (human)
  residual activity: 96.5%
STK3 (human)
  residual activity: 102%
STK38 (human)
  residual activity: 100%
SYK (human)
  residual activity: 101%
WNK2 (human)
  residual activity: 107%

## CCC(=O)Nc1ccc2ncnc(Nc3cccc(Br)c3)c2c1
ABL1 (human)
  residual activity: 98.9%
ACVRL1 (human)
  residual activity: 97.4%
AKT1 (human)
  residual activity: 95.8%
AURKC (human)
  residual activity: 102%
CDC42BPA (human)
  residual activity: 101%
CDK6 CCND3 (human)
  residual activity: 94.8%
CDK9 CCNK (human)
  residual activity: 94.1%
CHUK (human)
  residual activity: 99.3%
CSK (human)
  residual activity: 89.5%
CSNK1G2 (human)
  residual activity: 98.1%
CSNK2A1 (human)
  residual activity: 99%
DCLK2 (human)
  residual activity: 89%
DYRK1B (human)
  residual activity: 95.2%
DYRK2 (human)
  residual activity: 90.6%
EPHA1 (human)
  residual activity: 89.5%
FGR (human)
  residual activity: 93.2%
GRK6 (human)
  residual activity: 97.6%
HIPK1 (human)
  residual activity: 104%
IRAK1 (human)
  residual activity: 92.7%
[1]
  residual activity: 96.6%
JAK2 JH1 JH2 (human)
  residual activity: 103%
LTK (human)
  residual activity: 81%
MAP4K2 (human)
  residual activity: 90.5%
MARK1 (human)
  residual activity: 98.5%
MST4 (human)
  residual activity: 97.6%
PDGFRA (human)
  residual activity: 107%
PDPK1 (human)
  residual activity: 107%
PKN1 (human)
  residual activity: 101%
PNCK (human)
  residual activity: 96%
PRKCI (human)
  residual activity: 106%
PRKCZ (human)
  residual activity: 95.7%
PRKX (human)
  residual activity: 95.7%
PTK2B (human)
  residual activity: 99%
RET (human)
  residual activity: 106%
SLK (human)
  residual activity: 90%
SRMS (human)
  residual activity: 99.4%
SRPK3 (human)
  residual activity: 97%
STK3 (human)
  residual activity: 88%
STK38 (human)
  residual activity: 100%
SYK (human)
  residual activity: 94.3%
WNK2 (human)
  residual activity: 107%
